These results are taken from patent publication US20240287076A1, “COMPOUNDS FOR TARGETING DEGRADATION OF BRUTON'S TYROSINE KINASE” (BIOGEN MA INC., priority 2021, published 2024).

Structures are written as SMILES.

T1 sequence (Q06187 whole entry, the tested form may be a part): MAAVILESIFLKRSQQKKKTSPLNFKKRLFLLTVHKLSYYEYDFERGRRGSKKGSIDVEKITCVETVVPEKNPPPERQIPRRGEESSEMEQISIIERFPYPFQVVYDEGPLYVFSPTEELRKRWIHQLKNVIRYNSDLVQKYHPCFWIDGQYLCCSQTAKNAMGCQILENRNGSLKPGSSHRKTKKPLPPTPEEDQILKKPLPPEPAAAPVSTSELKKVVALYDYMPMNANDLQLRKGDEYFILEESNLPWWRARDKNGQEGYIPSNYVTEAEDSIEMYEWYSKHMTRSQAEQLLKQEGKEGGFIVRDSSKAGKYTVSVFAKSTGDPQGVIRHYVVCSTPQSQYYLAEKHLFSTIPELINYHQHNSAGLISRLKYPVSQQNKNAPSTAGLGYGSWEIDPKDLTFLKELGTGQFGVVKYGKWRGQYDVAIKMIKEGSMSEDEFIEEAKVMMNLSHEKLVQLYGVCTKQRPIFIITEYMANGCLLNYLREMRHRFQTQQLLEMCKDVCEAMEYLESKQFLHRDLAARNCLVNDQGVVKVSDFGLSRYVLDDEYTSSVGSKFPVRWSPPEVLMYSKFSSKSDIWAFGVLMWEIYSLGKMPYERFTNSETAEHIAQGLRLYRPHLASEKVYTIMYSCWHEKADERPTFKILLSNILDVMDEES

The test concerns the target T1, BTK (Homo sapiens, UniProt Q06187).
T1 construct: The GM01501.3 cell line endogenously expresses BTK with a HiBiT fusion tag via CRISPR knock-in at its C-terminal region; endogenous in cells; host or cells: GM01501.3 (GM01501 cells engineered by CRISPR knock-in of HiBiT at the BTK locus)
In words: BTK degradation assay using the HiBiT Method (Nano-Glo HiBiT Lytic Assay, GM01501.3 cells). The note with it: HiBiT Degradation on GM01501.3 BTK @ 6 hours. It is filed as cell-based. The procedure, abridged: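 Degradation read-out: HiBiT luminescence after lytic reagent addition, giving DC50. Compounds dosed from 10 μM in 11 half-log steps (duplicate) onto GM01501.3 cells, whose endogenous BTK carries a C-terminal HiBiT knock-in tag; 6 h exposure, 37 °C, 5% CO2.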
Broadly, the DC50 is the concentration at which degradation of the target reaches its halfway point. As for `Cc1cc(-c2ncnn3cc(CCC(F)(F)CN4CCC(c5ccc(C6CCC(=O)NC6=O)cc5)CC4)cc23)ccc1CNC(=O)c1noc(C(C)(C)C)n1` (stereo not drawn) [Example 168, 5-tert-butyl-N-[[4-[6-[4-[4-[4-(2,6-dioxo-3-piperidyl)phenyl]-1-piperidyl]-3,3-difluoro-butyl]pyrrolo[2,1-f][1,2,4]triazin-4-yl]-2-methyl-phenyl]methyl]-1,2,4-oxadiazole-3-carboxamide], the 50% degradation concentration (DC50) is below 100 nM. With `Cc1cc(-c2ncnn3cc(-c4ccc(CN5CCC(c6ccc(OC7CCC(=O)NC7=O)cc6)CC5)cc4)cc23)ccc1CNC(=O)c1noc(C(C)(C)C)n1` (stereo not drawn) [Example 19, 5-tert-butyl-N-[[4-[6-[4-[[4-[4-[(2,6-dioxo-3-piperidyl)oxy]phenyl]-1-piperidyl]methyl]phenyl]pyrrolo[2,1-f][1,2,4]triazin-4-yl]-2-methyl-phenyl]methyl]-1,2,4-oxadiazole-3-carboxamide], the half-maximal degradation concentration (DC50) was below 100 nM. The same measure for `CC(C)(C)c1nc(C(=O)NCc2ccc(-c3ncnn4cc(CCCCN5CCC(n6ccc(NC7CCC(=O)NC7=O)n6)CC5)cc34)cc2F)no1` (stereo not drawn) [Example 137, 5-tert-butyl-N-[[4-[6-[4-[4-[3-[(2,6-dioxo-3-piperidyl)amino]pyrazol-1-yl]-1-piperidyl]butyl]pyrrolo[2,1-f][1,2,4]triazin-4-yl]-2-fluoro-phenyl]methyl]-1,2,4-oxadiazole-3-carboxamide]: below 100 nM. In turn, `Cc1cc(-c2ncnn3cc(-c4ccc(COCCCc5ccc(NC6CCC(=O)NC6=O)cc5)cc4)cc23)ccc1CNC(=O)c1noc(C(C)(C)C)n1` (stereo not drawn) [Example 147, 5-tert-butyl-N-[[4-[6-[4-[3-[4-[(2,6-dioxo-3-piperidyl)amino]phenyl]propoxymethyl]phenyl]pyrrolo[2,1-f][1,2,4]triazin-4-yl]-2-methyl-phenyl]methyl]-1,2,4-oxadiazole-3-carboxamide] came in with a 50% degradation concentration (DC50) of 100 to 500 nM.

`Cc1cc(-c2ncnn3cc(CCCCN4CCC(c5ccc6c(N7CCC(=O)NC7=O)nn(C)c6c5)CC4)cc23)ccc1CNC(=O)c1noc(C(C)(C)C)n1` [Example 133, 5-tert-butyl-N-[[4-[6-[4-[4-[3-(2,4-dioxohexahydropyrimidin-1-yl)-1-methyl-indazol-6-yl]-1-piperidyl]butyl]pyrrolo[2,1-f][1,2,4]triazin-4-yl]-2-methyl-phenyl]methyl]-1,2,4-oxadiazole-3-carboxamide] displayed a 50% degradation concentration (DC50) below 100 nM.

The compound `Cc1cc(-c2ncnn3cc(-c4ccc(CN5CCOCC(n6cc(NC7CCC(=O)NC7=O)cn6)C5)cc4)cc23)ccc1CNC(=O)c1noc(C(C)(C)C)n1` (stereo not drawn) [Example 203, 5-(tert-butyl)-N-(4-(6-(4-((6-(4-((2,6-dioxopiperidin-3-yl)amino)-1H-pyrazol-1-yl)-1,4-oxazepan-4-yl)methyl)phenyl)pyrrolo[2,1-f][1,2,4]triazin-4-yl)-2-methylbenzyl)-1,2,4-oxadiazole-3-carboxamide] registered a DC50 below 100 nM. As for `Cc1cc(-c2ncnn3cc(-c4ccc(OCCCCN5CCC(c6ccc(NC7CCC(=O)NC7=O)cc6)CC5)cc4)cc23)ccc1CNC(=O)c1noc(C(C)(C)C)n1` (stereo not drawn) [Example 113, -tert-butyl-N-[[4-[6-[4-[4-[4-[4-[(2,6-dioxo-3-piperidyl)amino]phenyl]-1-piperidyl]butoxy]phenyl]pyrrolo[2,1-f][1,2,4]triazin-4-yl]-2-methyl-phenyl]methyl]-1,2,4-oxadiazole-3-carboxamide], the figure is below 100 nM.

Compound `Cc1cc(-c2ncnn3cc(-c4ccc(CN5CCC(c6ccc(NC7CCC(=O)NC7=O)cc6)CC5)cn4)cc23)ccc1CNC(=O)c1noc(C(C)(C)C)n1` (stereo not drawn) [Example 241, 5-(tert-butyl)-N-(4-(6-(5-((4-(4-((2,6-dioxopiperidin-3-yl)amino)phenyl)piperidin-1-yl)methyl)pyridin-2-yl)pyrrolo[2,1-f][1,2,4]triazin-4-yl)-2-methylbenzyl)-1,2,4-oxadiazole-3-carboxamide] displayed a DC50 below 100 nM. In the case of `Cc1cc(-c2ncnn3cc(-c4ccc(CN5CCC(c6ccc(NC7CCC(=O)NC7=O)cc6)CC5)cc4)cc23)ccc1CNC(=O)CCCC(C)(C)C` (stereo not drawn) [Example 74, N-[[4-[6-[4-[[4-[4-[(2,6-dioxo-3-piperidyl)amino]phenyl]-1-piperidyl]methyl]phenyl]pyrrolo[2,1-f][1,2,4]triazin-4-yl]-2-methyl-phenyl]methyl]-5,5-dimethyl-hexanamide], the DC50 is below 100 nM.

As to `Cc1cc(-c2ncnn3cc(N4CCN(C(=O)CCc5ccccc5CNC(=O)c5ccc(OC6CCC(=O)NC6=O)cc5)CC4)cc23)ccc1CNC(=O)c1noc(C(C)(C)C)n1` (stereo not drawn) [Example 183, 5-(tert-butyl)-N-(4-(6-(4-(3-(2-((4-((2,6-dioxopiperidin-3-yl)oxy)benzamido)methyl)phenyl)propanoy 1)piperazin-1-yl)pyrrolo[2,1-f][1,2,4]triazin-4-y1)-2-methylbenzyl)-1,2,4-oxadiazole-3-carboxamide], the DC50 is below 100 nM.

As for `Cc1cc(-c2ccnc3cc(-c4ccc(CN5CCC(c6ccc(NC7CCC(=O)NC7=O)cc6)CC5)cc4)nn23)ccc1CNC(=O)c1noc(C(C)(C)C)n1` (stereo not drawn) [Example 162, 5-tert-butyl-N-[[4-[2-[4-[[4-[4-[(2,6-dioxo-3-piperidyl)amino]phenyl]-1-piperidyl]methyl]phenyl]pyrazolo[1,5-a]pyrimidin-7-yl]-2-methyl-phenyl]methyl]-1,2,4-oxadiazole-3-carboxamide], the DC50 is below 100 nM. Regarding `Cc1cc(-c2ncnn3cc(-c4ccc(CN5CCC(c6ccc(NC7CCC(=O)NC7=O)cc6)CC5)cc4)cc23)ccc1CNC(=O)c1ccc(F)c(F)c1` (stereo not drawn) [Example 65, N-[[4-[6-[4-[[4-[4-[(2,6-dioxo-3-piperidyl)amino]phenyl]-1-piperidyl]methyl]phenyl]pyrrolo[2,1-f][1,2,4]triazin-4-yl]-2-methyl-phenyl]methyl]-3,4-difluoro-benzamide], the DC50 was below 100 nM.

Consider `Cc1cc(-c2ncnn3cc(-c4ccc(CN5CCC(c6ccc(NC7CCC(=O)NC7=O)cc6)CC5)cc4)cc23)ccc1CNC(=O)CCC(C)(C)C` (stereo not drawn) [Example 81, N-[[4-[6-[4-[[4-[4-[(2,6-dioxo-3-piperidyl)amino]phenyl]-1-piperidyl]methyl]phenyl]pyrrolo[2,1-f][1,2,4]triazin-4-yl]-2-methyl-phenyl]methyl]-4,4-dimethyl-pentanamide], for which the DC50 was below 100 nM.

In the case of `Cc1cc(-c2ncnn3cc(-c4ccc(CN5CCC(c6ccc(NC7CCC(=O)NC7=O)cc6)CC5)cc4)cc23)ccc1CNC(=O)c1ccc(C(F)(F)F)cn1` (stereo not drawn) [Example 88, N-[[4-[6-[4-[[4-[4-[(2,6-dioxo-3-piperidyl)amino]phenyl]-1-piperidyl]methyl]phenyl]pyrrolo[2,1-f][1,2,4]triazin-4-yl]-2-methyl-phenyl]methyl]-5-(trifluoromethyl)pyridine-2-carboxamide], the DC50 was below 100 nM. Turning to `Cc1cc(-c2ncnn3cc(N4CCN(C(=O)C5CCN(C(=O)c6ccc(OC7CCC(=O)NC7=O)cc6)C5)CC4)cc23)ccc1CNC(=O)c1noc(C(C)(C)C)n1` (stereo not drawn) [Example 172, 5-(tert-butyl)-N-(4-(6-(4-(1-(4-((2,6-dioxopiperidin-3-yl)oxy)benzoyl)pyrrolidine-3-carbonyl)piperazin-1-yl)pyrrolo[2,1-f][1,2,4]triazin-4-yl)-2-methylbenzyl)-1,2,4-oxadiazole-3-carboxamide], the DC50 was in the range of 100 to 500 nM. The same measure for `Cc1cc(-c2ncnn3cc(-c4ccc(C(=O)NCCc5cccc(NC6CCC(=O)NC6=O)c5)cc4)cc23)ccc1CNC(=O)c1noc(C(C)(C)C)n1` (stereo not drawn) [Example 196]: below 100 nM; for `COc1cc(CN2CCC(c3ccc(C4CCC(=O)NC4=O)cc3)CC2)ccc1OCCOc1cccc(-c2cc3c(-c4ccc(CNC(=O)c5noc(C(C)(C)C)n5)c(C)c4)ncnn3c2)c1` (stereo not drawn) [Example 204]: 100 to 500 nM. The same measure for `Cc1cc(-c2ncnn3cc(-c4ccc(OCCN5CCC(c6ccc(OC7CCC(=O)NC7=O)cc6)CC5)cc4)cc23)ccc1CNC(=O)c1noc(C(C)(C)C)n1` (stereo not drawn) [Example 107, 5-tert-butyl-N-[[4-[6-[4-[2-[4-[4-[(2,6-dioxo-3-piperidyl)oxy]phenyl]-1-piperidyl]ethoxy]phenyl]pyrrolo[2,1-f][1,2,4]triazin-4-yl]-2-methyl-phenyl]methyl]-1,2,4-oxadiazole-3-carboxamide]: below 100 nM; for `Cc1cc(-c2ncnn3cc(-c4ccc(C(=O)N[C@H](C)c5cccc(NC6CCC(=O)NC6=O)c5)cc4)cc23)ccc1CNC(=O)c1noc(C(C)(C)C)n1` (stereo partly drawn) [Example 199, 5-(tert-butyl)-N-(4-(6-(4-(((1R)-1-(3-((2,6-dioxopiperidin-3-yl)amino)phenyl)ethyl)carbamoyl)phenyl)pyrrolo[2,1-f] [1,2,4]triazin-4-yl)-2-methylbenzyl)-1,2,4-oxadiazole-3-carboxamide]: below 100 nM; for `Cc1cc(-c2ncnn3cc(N4CCN(C(=O)C5CC6(CCCN6C(=O)c6ccc(OC7CCC(=O)NC7=O)cc6)C5)CC4)cc23)ccc1CNC(=O)c1noc(C(C)(C)C)n1` (stereo not drawn) [Example 186, 5-(tert-butyl)-N-(4-(6-(4-(5-(4-((2,6-dioxopiperidin-3-yl)oxy)benzoyl)-5-azaspiro[3.4]octane-2-carbonyl)piperazin-1-yl)pyrrolo[2,1-f][1,2,4]triazin-4-yl)-2-methylbenzyl)-1,2,4-oxadiazole-3-carboxamide]: below 100 nM. As for `Cc1cc(-c2ncnn3cc(-c4ccc(CN5CCC(c6ccc(N[C@@H]7CCC(=O)NC7=O)cc6F)CC5)cc4)cc23)ccc1CNC(=O)c1noc(C(C)(C)C)n1` [Example 26, (R)-5-(tert-butyl)-N-(4-(6-(4-((4-(4-((2,6-dioxopiperidin-3-yl)amino)-2-fluorophenyl)piperidin-1-yl)methyl)phenyl)pyrrolo[2,1-f] [1,2,4]triazin-4-yl)-2-methylbenzyl)-1,2,4-oxadiazole-3-carboxamide], the figure is below 100 nM.
